Common to all, as to experiment: LC-MS/MS proteome profiling
What all share (format): cell-based, Homo sapiens
What all share (conditions): SK5527 vs DMSO (24h)

For assay [1], the system named is BAZ2A. As for the experimental part: (§1) Analysis of the mass spectrometry data was performed in DiaNN (version 1.9). Precursor false discovery rate was set at 1%. Spectra were searched against the Homo sapiens protein sequences in the Uniprot database (database release version of 2024_01), containing 20,597 sequences (www.uniprot.org) and the imbedded protein contaminant list. Enzyme specificity was set as C-terminal to arginine and lysine, also allowing cleavage at proline bonds with a maximum of 2 missed cleavages. Variable modifications were set to oxidation of methionine residues and acetylation of protein N-termini while fixed modification was set to carbamidomethylation of cystein residues. Matching between runs was enabled. Mainly default settings were used, except for the addition of a 400-900 m/z precursor mass range filter and MS1 and MS2 mass tolerance was set to 10 and 20 ppm respectively.
(§2) Further data analysis of the results was performed with an in-house script in the R programming language.
(§3) Protein expression matrices were prepared as follows: the DIA-NN main report output table was filtered at a precursor and protein library q-value cut-off of 1 % and only proteins identified by at least one proteotypic peptide were retained. After pivoting into a wide format, iBAQ intensity columns were then added to the matrix using the DIAgui’s R package get_IBAQ function. PG MaxLFQ intensities were log2 transformed and replicate samples were grouped. Proteins with less than 3 valid values in at least one group were removed and missing values were imputed from a normal distribution centered around the detection limit (package DEP) leading to a list of 7,759 quantified proteins in the experiment, used for further data analysis. […]
(§4) Statistical significance for differential regulation was set to a false discovery rate (FDR) of < 0.05 and |log2FC| = 2.

Assay [2] deals with ESCO2. As for the experimental part: as §1, §2, §3, §4
Assay [3] has as its system ETV3. As for the experimental part: as §1, §2, §3, §4
For assay [4], the system named is FAM204A. The method, then: as §1, §2, §3, §4
Assay [5] has as its system MTERF3. As for the experimental part:
as §1, §2, §3, §4

The subject of assay [6] is ZNF286A. As for the experimental part:
as §1, §2, §3, §4

Assay [7] has as its system ZNF770. As for the experimental part: as §1, §2, §3, §4

On to `Cc1cc(Nc2ccc(F)c(CC3(C(=O)N4CCC(F)(CN5CCN(c6ccc(N7CCC(=O)NC7=O)cn6)CC5)CC4)CCN(Cc4cccc(Cl)c4F)CC3)n2)n[nH]1` [SK5527], for which the “logFC BAZ2A” value in assay [1] is listed as 2.83. Moreover, in assay [2], the “logFC ESCO2” value is reported as -2.1. The “logFC ETV3” value in assay [3] is reported as -2.36. Moreover, the “logFC FAM204A” value in assay [4] was determined as 2.65. The “logFC MTERF3” value in assay [5] was -2.09. Also, the “logFC ZNF286A” value in assay [6] is on record as -2.95. In addition, the “logFC ZNF770” value in assay [7] was -4.

The values are drawn from article PMC12670405, “Second-Generation AURKA-Targeting PROTACs: Structural Optimization toward in Vivo Degradation in Neuroblastoma” (Journal of Medicinal Chemistry, 2025).
